According to ChEMBL document CHEMBL1201862, “PubChem BioAssay data set” (2004):
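Briefly, cells in 96-well plates were exposed to five compound concentrations for 48 h, and endpoints were estimated by linear interpolation. Here, GI50 denotes the concentration required for 50% inhibition of growth.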 Activity calls are given as the source filed them. No stated cut-off is given here; in the data, active = GI50 up to about 1.1 µM and inactive = higher.

Assays:
Experiment in all cases: NCI anticancer screen, dose series, 48 h
A549 = system: A549
CAKI-1 = system: CAKI-1
COLO 205 = system: COLO 205
HCT-116 = system: HCT-116
HCT-15 = system: HCT-15
K562 = system: K562
MDA-MB-435 = system: MDA-MB-435
MDA-N = system: MDA-N
NCI-H23 = system: NCI-H23
NCI/ADR-RES = system: NCI/ADR-RES
SF-268 = system: SF-268
SK-MEL-2 = system: SK-MEL-2
TK-10 = system: TK-10
UACC-257 = system: UACC-257
HL-60 = system: HL-60
MDA-MB-231 = system: MDA-MB-231
NCI-H226 = system: NCI-H226
NCI-H522 = system: NCI-H522
MCF7 = system: MCF7

| Structure (SMILES) | GI50 (A549) | GI50 (CAKI-1) | GI50 (COLO 205) | GI50 (HCT-116) | GI50 (HCT-15) | GI50 (K562) | GI50 (MDA-MB-435) | GI50 (MDA-N) | GI50 (NCI-H23) | GI50 (NCI/ADR-RES) | GI50 (SF-268) | GI50 (SK-MEL-2) | GI50 (TK-10) | GI50 (UACC-257) | GI50 (HL-60) | GI50 (MDA-MB-231) | GI50 (NCI-H226) | GI50 (NCI-H522) | GI50 (MCF7) |
| --- | --- | --- | --- | --- | --- | --- | --- | --- | --- | --- | --- | --- | --- | --- | --- | --- | --- | --- | --- |
| O=C(CCc1ccc(O)cc1)c1c(O)cc(O)cc1OC1OC(CO)C(O)C(O)C1O (centres undefined) | > 100 µM (inactive) | > 100 µM (inactive) | > 100 µM (inactive) | > 100 µM (inactive) | > 100 µM | > 100 µM (inactive) | > 100 µM (inactive) | > 100 µM (inactive) | > 100 µM (inactive) | > 100 µM (inactive) | > 100 µM (inactive) | > 100 µM (inactive) | > 100 µM (inactive) | > 100 µM (inactive) | – | – | – | – | – |
| CC1CCC/C1=C(/I)C(=O)c1ccccc1 (centres undefined) | 98.2 µM (inactive) | 2.97 µM (inactive) | > 100 µM (inactive) | 36.6 µM (inactive) | > 100 µM | 34.4 µM (inactive) | 28.9 µM (inactive) | 36.6 µM (inactive) | 74.5 µM (inactive) | 76.7 µM (inactive) | > 100 µM (inactive) | > 100 µM (inactive) | > 100 µM (inactive) | 89.9 µM (inactive) | 39.5 µM (inactive) | 40.2 µM (inactive) | 60.7 µM (inactive) | 41.7 µM (inactive) | – |
| CC1(C)CC(=O)c2c(nc3c(ccc4ccccc43)c2-c2ccc(NC(=O)CCCCC(=O)Nc3ccc(-c4c5c(nc6c4ccc4ccccc46)CC(C)(C)CC5=O)cc3)cc2)C1 | 53.7 µM (inactive) | 35.3 µM (inactive) | 26.7 µM (inactive) | 23.9 µM (inactive) | 27.7 µM | 30.8 µM (inactive) | 26.2 µM (inactive) | 26.4 µM (inactive) | – | 23.8 µM (inactive) | 28.2 µM (inactive) | 33 µM (inactive) | 48.6 µM (inactive) | 39.2 µM (inactive) | 29.6 µM (inactive) | 19.3 µM (inactive) | 15.2 µM (inactive) | 29.5 µM (inactive) | 32.2 µM (inactive) |
| CSC1C=C(C(C)C)CCC1(C)SC (centres undefined) | 31.5 µM (inactive) | 18.3 µM (inactive) | 16.2 µM (inactive) | 19.2 µM (inactive) | 21 µM | 16.7 µM (inactive) | – | – | 19.3 µM (inactive) | – | 20.6 µM (inactive) | 17.7 µM (inactive) | 21.4 µM (inactive) | 15.9 µM (inactive) | 2.3 µM (inactive) | – | 17.4 µM (inactive) | 16.3 µM (inactive) | – |
| C=CCc1ccc(O)c(-c2cc(C3Oc4c(-c5cc(CC=C)ccc5O)cc(O)cc4[C@@H]3CO)ccc2O)c1 (some centres undefined) | 56 µM (inactive) | 47.3 µM (inactive) | 35 µM (inactive) | 23.7 µM (inactive) | 15.8 µM | 15.6 µM (inactive) | – | – | 23.7 µM (inactive) | – | 30.3 µM (inactive) | 18.6 µM (inactive) | 66.1 µM (inactive) | 73.5 µM (inactive) | 18.5 µM (inactive) | – | 53.8 µM (inactive) | 20.1 µM (inactive) | – |
| Cn1c(N/N=C/c2ccccc2)nc(-c2ccc3c(c2)OCO3)c(C#N)c1=O | 45.4 µM (inactive) | 99.3 µM (inactive) | 58.3 µM (inactive) | > 100 µM (inactive) | 36.5 µM | 87.3 µM (inactive) | 73.8 µM (inactive) | > 100 µM (inactive) | > 100 µM (inactive) | > 100 µM (inactive) | > 100 µM (inactive) | > 100 µM (inactive) | 69.7 µM (inactive) | 77.1 µM (inactive) | 39.9 µM (inactive) | 14 µM (inactive) | – | > 100 µM (inactive) | > 100 µM (inactive) |
| NC(=O)c1nc(-c2ccc(Cl)c(Cl)c2)nc2ccccc12 | > 21.4 µM (inactive) | > 94.4 µM (inactive) | > 100 µM (inactive) | > 19.8 µM (inactive) | > 100 µM | > 31.6 µM (inactive) | – | – | 39.7 µM (inactive) | – | 19.1 µM (inactive) | 9.42 µM (inactive) | 22.6 µM (inactive) | > 29.1 µM (inactive) | > 100 µM (inactive) | – | 18 µM (inactive) | > 100 µM (inactive) | – |
| COc1cc2c(cc1OC)C1CCc3ccccc3CN1CC2 (centres undefined) | > 100 µM (inactive) | > 100 µM (inactive) | > 100 µM (inactive) | > 100 µM (inactive) | > 100 µM | > 100 µM (inactive) | > 100 µM (inactive) | > 100 µM (inactive) | > 100 µM (inactive) | > 100 µM (inactive) | > 100 µM (inactive) | > 100 µM (inactive) | > 100 µM (inactive) | > 100 µM (inactive) | > 100 µM (inactive) | > 100 µM (inactive) | > 100 µM (inactive) | > 100 µM (inactive) | > 100 µM (inactive) |
